Test results taken from patent publication US7030213B2, “Conformationally stabilized cell adhesion peptides” (La Jolla Cancer Research Institute, priority 1987, dated 2006).
Primed or numbered codes have the meaning given here. Where no end group is shown, it is not given here. [ ]: non-standard residue; d: D form. Pen′ = Penicillamine

Tests used:
[1] = system: attachment of normal rat kidney cells to vitronectin; assay: Cell adhesion assay: inhibition of attachment of normal rat kidney cells to vitronectin; assay type: cell-based; conditions: normal rat kidney cells on vitronectin-coated wells, peptide 0 to 10.0 mM, 1 hour at 37° C., FIG. 2
Experimental: (§1) Fibronectin and vitronectin were purified from human plasma according to the methods of Ruoslahti et al., (1982) Meth. Enz. 82:803; and Hayman et al., (1983) PNAS 80:4003, respectively, both of which are incorporated herein by reference. The adhesion of normal rat kidney cells to fibronectin and vitronectin was assayed as described, in Ruoslahti et al., Meth. Enz. supra. Briefly, 0.1 ml solution of fibronectin or vitronectin at a concentration of 12 μg/ml in 0.1M PBS was placed in each well of 96-well plastic microtiter plates and left for 2 hours at room temperature. The unattached protein was removed by washing three times with PBS.
(§2) One day before the assay, a confluent culture of normal rat kidney cells was split 1:2 using standard tissue culture trypsin. The cells were washed three times with PBS, pH 7.2. […] Before the last centrifugation, a sample was taken and cell numbers and viability by trypan blue exclusion are determined. […]
(§3) The unattached cells were removed simply by removing the medium and washing the wells. […] The cells were then fixed with 3% paraformaldehyde in PBS and stained with 1% toluidine blue, paraformaldehyde in PBS, and attached cells counted. Their number was determined using a cell counter that is capable of counting cells attached to a surface (Dynatech Laboratories, Alexandria, Va.). […]

[2] = system: attachment of normal rat kidney cells to fibronectin; assay: Cell adhesion assay: inhibition of attachment of normal rat kidney cells to fibronectin; assay type: cell-based; conditions: normal rat kidney cells on fibronectin-coated wells; peptide 0 to 10.0 mM; 1 hour at 37° C.; FIG. 2
Experimental: as §1, §2, §3

Substance	inhibition of attachment to vitronectin [1]	inhibition of attachment to fibronectin [2]	molar concentration inhibiting attachment to vitronectin, lower than the linear peptide ([1]; relative to linear peptide)
Gly-Pen-Gly-Arg-Gly-Asp-Ser-Pro-Cys (G[Pen′]GRGDSPC; cysteine pairing not given here) [linear peptide, non-cyclized, or linear, peptide used as comparator]	inhibited attachment of cells to both substrates at relatively similar concentrations	inhibited attachment of cells to both substrates at relatively similar concentrations	–
Gly-Pen-Gly-Arg-Gly-Asp-Ser-Pro-Cys-Ala [cyclic peptide]	–	ineffective	10 fold
